Experimental data from patent US8664252B2, “Phosphodiesterase type III (PDE III) inhibitors or CA2+-sensitizing agents for the treatment of hypertrophic cardiomyopathy” (Boehringer Ingelheim Vetmedica GmbH, priority 2008, dated 2014).

Test system: Cats Suffering from HCM
Assay: Treatment of a cat suffering from HCM with acute circulatory failure (clinical case)
Format: in vivo
Experimental: A 15 year old castrated male tomcat of mixed breed (mother Persian, father European short hair, bodyweight 6 kg) was brought to the veterinary clinic in March 2008. The animal was lethargic and unable to move. Examination of the cardiovascular system indicated acute circulatory failure, accompanied with tachycardia (>180 bpm). Echocardiographic investigation indicated a thickened left ventricular wall and septum, which are related to HCM.
Because of the desperate situation 1.25 mg pimobendan were applied orally with the expectation/fear that this measure would/could probably further deteriorate the status of the cat.
This treatment is still being continued.

| Structure (SMILES) | control of acute circulatory failure (clinical situation) (15 year old tomcat with HCM, 6 kg, furosemide 1 mg/kg i.v., immediate administration) | clinical symptoms / recovery (same cat, after insufficient furosemide, 1.25 mg pimobendan orally, single application) | left ventricular filling and systolic function (ultrasound) (same cat, continued treatment 20 microgram/kg/day pimobendan orally) |
| --- | --- | --- | --- |
| NS(=O)(=O)c1cc(C(=O)O)c(NCc2ccco2)cc1Cl [furosemide] | did not result in a sufficient control of the situation |  |  |
| COc1ccc(-c2nc3cc(C4=NNC(=O)CC4C)ccc3[nH]2)cc1 (stereo not drawn) [pimobendan, 4,5-dihydro-6-[2-(4-methoxyphenyl)-1H-benzimidazol-5-yl]-5-methyl-3 (2H)-pyridazinone] |  | clinical symptoms improved and the cat recovered within a few hours | significant recovery of left ventricular filling and systolic function |
